Like-named read-outs stand apart in the source and are kept apart here.

On data set [1], the source says:
Regarding concentrations and amounts of the various reagents, please refer to Tables 1 and 2 below: […]

Data set [2] concerns incised wound on the dorsum of adult white rats. To be noted: for deposited collagen (amount, appearance) / collagen fibers (density, structure) vs normal dermis: Trichrome dyeing.
Method: On the dorsum of adult white rats, skin near the limbs which are on the same distance from the median line was incised in about 10 mm long. In a sham control group, 0.1 cc distilled water was injected to the dermis of the incised wound and simply sutured.
On 14th and 56th days from the experiments, tissues of ten adult white rats were taken, fixed in 10% neutral buffer formalin for 24 hours, embedded in paraffin throughout the normal tissue treating process.
With a tissue sample, which was cut perpendicularly to the middle of the wound, the width of the scar by use of image analysis program (Image-Pro version 3.0, Microsoft) under 40 magnification was measured, and the differences between the groups were compared. The result of the measurement was confirmed by Student t-test.
On the dorsum of adult white rats, skin near the limbs which are on the same distance from the median line was incised in about 10 mm long. After incision, the control group was simply sutured.
For a further data set, the system named is TGF-β. The data set is described as follows: Experiment of TGF-β inactivation: histology and width of scar after TGF-β injection into incised wound. Type of data set: in vivo, bovine. To be noted: 8 weeks; Trichrome dyeing.
Setting [3] is: 2 weeks, hematoxylin-eosin dyeing, ×40.

As for `[K+].[OH-]` [KOH, potassium hydroxide], the pH value in data set [1] (0.05 mEq) came out at 8.56; in data set [1] (0.1 mEq), 9.40; in data set [1] (0.5 mEq) it was 9.74; in data set [1] (1.0 mEq), 10.51. In data set [2] (2 weeks), the “deposited collagen (amount, appearance)” value is recorded as “meager compared to that of the control group”. In addition, in data set [2] (setting [3]), the “width of the scar vs control group (histological observation)” value is “thinner than that of the control group”. In addition, the “collagen fibers (density, structure) vs normal dermis” value (“collagen fibers … vs normal dermis” for short) in data set [2] (8 weeks) is “not different from that of the normal dermis nearby”.
`[Na+].[OH-]` [NaOH, sodium hydroxide]: the pH value in data set [1] (0.05 mEq) is recorded as 8.55; in data set [1] (0.1 mEq), 9.38; in data set [1] (0.5 mEq), 9.87; in data set [1] (1.0 mEq) it was 10.50. Besides, the “deposited collagen (amount, appearance)” value in data set [2] (2 weeks) was “meager compared to that of the control group”. Moreover, in data set [2] (setting [3]), the “width of the scar vs control group (histological observation)” value was “thinner than that of the control group”. The “collagen fibers … vs normal dermis” value in data set [2] (8 weeks) is “not different from that of the normal dermis nearby”.
On to `O=C([O-])O.[Na+]` [sodium bicarbonate], for which the pH value turned out to be 8.83 in data set [1] (0.05 mEq), 9.22 in data set [1] (0.1 mEq), 9.82 in data set [1] (0.5 mEq) and 10.36 in data set [1] (1.0 mEq). Also, the “degree of deposition of inflammatory cells vs control group” value in data set [2] (setting [3]) is on record as “not much difference”. Also, the “width of the scar vs control group (histological observation)” value in data set [2] (setting [3]) is given as “thinner than that of the control group”. Further, the scar appearance result in data set [2] (8 weeks, hematoxylin-eosin dyeing, ×40) was “thin and unnoticeable scar”. For the same compound, the fibroblast cells entry in data set [2] (8 weeks, hematoxylin-eosin dyeing, ×400) is reported as “Not many of the fibroblast cells were found”.
Consider TGF-β, for which the “collagen fibers … vs normal dermis” value in the data set on TGF-β is given as “clearly showed the scar”.

These data come from US20050136126A1, “Agent for reduction of scar formation by using wound alkalinization” (CambridgeMED, Inc., priority 2003, published 2005).
